In patent publication US6048854A, “2,3-diaminopropionic acid derivative” (Sumitomo Pharmaceuticals Company, Limited, priority 1993, dated 2000):
Where two headings read alike, the source gives them in different places.

Assays:
human fibronectin = experiment: Binding assay of platelet to adhesive protein: fibronectin (receptor binding inhibition); conditions: Table 4; fixed activated human platelets, 37° C., 60 minutes
Description: (§1) The blood was taken out from the elbow vein of a normal volunteer, and mixed with 1/10 volume of 3.8% sodium citrate. The blood was centrifuged at 1,000 rpm (150 g) for 10 minutes, and the supernatant is collected as a platelet rich plasma (PRP). The precipitates are centrifuged at 11,000 rpm (6000 g) for two minutes, and the supernatant is collected as a platelet poor plasma (PPP). To PRP is added prostaglandin I2 (PGl2) at a final concentration of 50 ng/ml, and the mixture was centrifuged at 11000 rpm for two minutes to give human platelet. The platelet was activated by washing with 3.8 mM HEPES-buffer (pH 7.4, Tyrode-HEPES buffer) containing 0.14 M sodium chloride, 2.7 mM potassium chloride, 3.7 mM sodium dihydrogen phosphate, 0.98 mM magnesium chloride, 1 mg/ml glucose, 50 ng/ml PGl2 and 0.35% bovine serum albumin (BSA), adding thereto 5 μM epinephrine, and 30 μM ADP (adenosine diphosphate), followed by being allowed to stand at room temperature for five minutes. To the activated platelet was added 0.05% p-formaldehyde, and the mixture was allowed to stand at room temperature for 30 minutes to give the fixed platelet, which was suspended in Tyrode-HEPES buffer to give a platelet suspension of a concentration of 2×10^8 ml^-1.
(§2) Human fibrinogen from which fibronectin was previously removed by passing through gelatin-cepharose, human fibronectin or human vitronectin was diluted with 0.1 M aqueous sodium hydrogen carbonate solution to a concentration of 5 μg/ml, and the protein solution is put into a 96-well microplate at a volume of 200 μl/well. The microplate was allowed to stand at 4° C. overnight. The plate was washed with phosphate buffered saline (PBS), and subjected to blocking with 3% BSA at 37° C. for one hour. To the plate were added a platelet suspension (final concentration, 10^8 ml^-1) and a test compound of various concentrations (total volume, 200 μl/well), and the plate was incubated at 37° C. for 60 minutes. The plate was treated with 1000-fold diluted enzyme (HRP)-labelled anti-mouse IgG polyclonal antibody at 37° C. for 60 minutes, and thereto was added HRP chromogenic substrate (0.1 M phosphate buffer containing 0.4 mg/ml O-phenylenediamine,0.01% hydrogen peroxide, 0.1 M citric acid, pH 5), and reacted at room temperature for 15 minutes. The reaction was terminated by adding thereto 4.5 M sulfuric acid at a volume of 25 μl/well, and the absorbance at 490 nm was measured.

human fibrinogen = biological target: T1, human fibrinogen (Homo sapiens, UniProt P05106+P08514); experiment: Binding assay of platelet to adhesive protein: fibrinogen (receptor binding inhibition); conditions: Table 4; fixed activated human platelets, 37° C., 60 minutes
T1 construct: centrifuged at 11000 rpm for two minutes to give human platelet; from tissue
T1 sequence (P08514 32-887 limits assumed): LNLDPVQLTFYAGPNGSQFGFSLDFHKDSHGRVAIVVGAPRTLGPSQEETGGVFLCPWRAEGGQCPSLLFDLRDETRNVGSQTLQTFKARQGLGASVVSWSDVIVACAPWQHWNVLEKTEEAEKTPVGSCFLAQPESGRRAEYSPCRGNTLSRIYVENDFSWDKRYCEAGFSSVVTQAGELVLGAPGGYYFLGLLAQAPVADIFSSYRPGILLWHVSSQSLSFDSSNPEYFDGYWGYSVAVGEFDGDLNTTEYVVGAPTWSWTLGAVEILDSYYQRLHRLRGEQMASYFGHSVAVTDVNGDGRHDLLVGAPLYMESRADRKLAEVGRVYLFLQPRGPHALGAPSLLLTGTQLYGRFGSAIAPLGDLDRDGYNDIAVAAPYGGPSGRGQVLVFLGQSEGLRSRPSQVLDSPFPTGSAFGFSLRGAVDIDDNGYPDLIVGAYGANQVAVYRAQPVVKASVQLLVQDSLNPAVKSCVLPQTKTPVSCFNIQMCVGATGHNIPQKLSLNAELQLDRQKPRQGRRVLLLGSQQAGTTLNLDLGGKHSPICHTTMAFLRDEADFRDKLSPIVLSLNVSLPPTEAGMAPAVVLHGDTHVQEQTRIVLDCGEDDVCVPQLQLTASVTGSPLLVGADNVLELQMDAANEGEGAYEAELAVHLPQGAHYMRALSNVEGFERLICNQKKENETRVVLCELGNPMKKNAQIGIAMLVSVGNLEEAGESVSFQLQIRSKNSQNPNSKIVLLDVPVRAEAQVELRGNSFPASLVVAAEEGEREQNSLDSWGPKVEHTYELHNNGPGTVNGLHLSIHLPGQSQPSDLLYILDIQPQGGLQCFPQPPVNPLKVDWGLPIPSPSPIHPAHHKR
T1 sequence (P08514 891-1039 limits assumed): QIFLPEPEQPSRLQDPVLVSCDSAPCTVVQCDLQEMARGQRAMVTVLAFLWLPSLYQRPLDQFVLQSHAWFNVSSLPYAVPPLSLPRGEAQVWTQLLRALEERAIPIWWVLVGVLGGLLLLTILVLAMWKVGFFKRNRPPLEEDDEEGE
T1 sequence (P05106 27-788): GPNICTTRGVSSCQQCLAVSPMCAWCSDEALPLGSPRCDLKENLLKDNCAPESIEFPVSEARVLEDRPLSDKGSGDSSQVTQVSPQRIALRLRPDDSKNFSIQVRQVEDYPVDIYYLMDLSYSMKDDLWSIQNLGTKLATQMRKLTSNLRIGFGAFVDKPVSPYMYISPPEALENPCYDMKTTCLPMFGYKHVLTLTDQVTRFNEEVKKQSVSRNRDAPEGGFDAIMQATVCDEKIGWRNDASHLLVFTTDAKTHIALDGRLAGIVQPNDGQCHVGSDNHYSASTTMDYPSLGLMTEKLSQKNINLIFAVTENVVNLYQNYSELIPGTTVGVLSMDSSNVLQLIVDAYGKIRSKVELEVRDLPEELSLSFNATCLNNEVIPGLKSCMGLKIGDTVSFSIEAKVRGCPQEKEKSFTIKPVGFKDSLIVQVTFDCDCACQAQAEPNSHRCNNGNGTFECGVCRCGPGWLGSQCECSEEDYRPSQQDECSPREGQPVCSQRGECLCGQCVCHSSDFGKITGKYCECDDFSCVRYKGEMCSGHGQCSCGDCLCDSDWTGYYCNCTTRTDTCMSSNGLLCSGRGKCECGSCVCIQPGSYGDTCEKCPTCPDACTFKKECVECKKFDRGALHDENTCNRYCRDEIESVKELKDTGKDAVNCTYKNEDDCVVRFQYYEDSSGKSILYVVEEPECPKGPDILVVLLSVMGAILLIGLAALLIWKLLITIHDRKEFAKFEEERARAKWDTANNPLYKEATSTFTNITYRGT
Description: as §1, §2

human vitronectin = experiment: Binding assay of platelet to adhesive protein: vitronectin (receptor binding inhibition); conditions: Table 4; fixed activated human platelets, 37° C., 60 minutes; read-out: receptor binding inhibition (IC50), Bitronectin
Description: as §1, §2

platelet aggregation [1] = experiment: Platelet aggregation inhibitory activity (ADP-induced, human platelet rich plasma); type: cell-based
How it was run: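 Citrated human platelet-rich plasma […] was stirred with test compound for 2 min at 37 °C. Aggregation was then induced with ADP at 3 μg/ml final and monitored by nephelometry. IC50 is the concentration giving 50% inhibition of aggregation.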

platelet aggregation [2] = experiment: Platelet aggregation inhibitory activity (ex vivo) after oral administration; type: in vivo; conditions: Cavia porcellus, guinea pig, oral 0.1 mg/kg, ADP 10 μg/ml
Description: A canula for collecting blood was inserted into the left common carotid artery of a guinea pig which was anesthetized with pentobarbital (30 mg/kg, i.p.). The blood (1 ml) was taken with a syringe containing 1/10 volume of 3.8% sodium citrate (Kettin-citrate, manufactured by Kokusai Shiyaku Ltd.), and the platelet aggregation ability thereof was measured (as a value before administration). Then, a test compound was orally administered to the guinea pig at a dose of 0.1 mg/kg in a volume of 5 ml/kg, and the blood was collected periodically likewise at 0.5, 1, 2, 4 and 6 hours after the administration of the test compound, and the platelet aggregation ability thereof was measured.
The determination of the platelet aggregation ability was carried out by turbidimetry using a Hematracer (Niko Bioscience) as follows. That is, the blood was centrifuged at 4500 rpm at room temperature for 10 seconds, and the supernatant was considered as platelet rich plasma (PRP), and the precipitate was centrifuged at 11000 rpm for two minutes and its supernatant was considered as platelet poor plasma (PPP), and the photo-transmittance of the PRP and the PPP was adjusted to 0%, and 100%, respectively. A cubet containing PRP (200 μl) was inserted to a measurement well, and […] at 1000 rpm at 37° C. for two minutes, and thereto was added a platelet aggregator; ADP (adenosine diphosphate, Sigma Ltd., 20 μl, final concentration; 10 μg/ml), and the maximum aggregation rate was measured. From the maximum aggregation rate before the administration of the test compound (MAR control) and the maximum aggregation rate after the administration of the test compound (MAR sample), the platelet aggregation inhibitory rate of each test compound was estimated according to the following equation.
Inhibitory rate (%)=(1-(MAR sample/MAR control))×100
The periodical change in the platelet aggregation inhibitory rate of each test compound at a dose of 0.1 mg/kg of oral administration is shown in Table 5.

[3] = 0.5 hr, read-out: platelet aggregation inhibitory rate (%), 0.5 hr
[4] = 1 hr, read-out: platelet aggregation inhibitory rate (%), 1 hr
[5] = 2 hrs, read-out: platelet aggregation inhibitory rate (%), 2 hrs
[6] = 4 hrs, read-out: platelet aggregation inhibitory rate (%), 4 hrs
[7] = 6 hrs, read-out: platelet aggregation inhibitory rate (%), 6 hrs
[8] = Homo sapiens, Table 2, same manner as Example 17
[9] = Homo sapiens, Table 3, same manner as Example 17

SMILES | IC50 (human fibronectin) [nM] | IC50 (human fibrinogen) [nM] | IC50 (human vitronectin) [nM] | IC50 (platelet aggregation [1]; Table 1, human PRP, ADP 3 μg/ml, 37° C.) [nM] | inhibition in vivo at 0.1 mg/kg (platelet aggregation [2]; [3]) [%] | inhibition in vivo at 0.1 mg/kg (platelet aggregation [2]; [4]) [%] | inhibition in vivo at 0.1 mg/kg (platelet aggregation [2]; [5]) [%] | inhibition in vivo at 0.1 mg/kg (platelet aggregation [2]; [6]) [%] | inhibition in vivo at 0.1 mg/kg (platelet aggregation [2]; [7]) [%] | IC50 (platelet aggregation [1]; [8]) [nM] | IC50 (platelet aggregation [1]; [9]) [nM]
O=C(CCC1CCNCC1)NCCC(=O)NC[C@H](NS(=O)(=O)c1ccccc1)C(=O)O [Example 2, (2S)-2-benzenesulfonylamino-3-(3-(3-(4-piperidyl)propanoylamino)propanoylamino)propanoic Acid] | 120 | 12 | 75000 | 39.6 | 87 | 78 | 67 | 32 | 13 |  | 
COc1ccc(S(=O)(=O)N[C@@H](CNC(=O)CCNC(=O)c2ccc(C(=N)N)cc2)C(=O)O)cc1 [Example 18, (2S)-3-(3-(4-amidinobenzoylamino)propanoylamino)-2-(4-methoxy)benzenesulfonylaminopropanoic Acid] | 400 | 7.3 | 8900 |  | 54 | 100 | 100 | 73 | 66 | 33 | 
Cc1cc(C)c(S(=O)(=O)N[C@@H](CNC(=O)CCNC(=O)c2ccc(C(=N)N)cc2)C(=O)O)c(C)c1 [Example 19, (2S)-3-(3-(4-amidinobenzoylamino)propanoylamino)-2-(2,4,6-trimethyl)benzenesulfonylaminopropanoic Acid] | 47 | 5 | 1200 |  | 86 | 93 | 91 | 89 | 91 | 30 | 
N=C(N)c1ccc(C(=O)NCCC(=O)NC[C@H](NS(=O)(=O)c2cccc3ccccc23)C(=O)O)cc1 [Example 20] | 79 | 7.3 | 500 |  | 76 | 91 | 99 | 100 | 100 | 57 | 
N=C(N)c1ccc(C(=O)NCCC(=O)NC[C@H](NS(=O)(=O)c2ccccc2C(F)(F)F)C(=O)O)cc1 [Example 21, (2S)-3-(3-(4-amidinobenzoylamino)propanoylamino)-2-(2-trifluoromethyl)benzenesulfonylaminopropanoic Acid] | 310 | 2.2 | 240 |  | 96 | 99 | 100 | 100 | 100 | 15 | 
N=C(N)c1ccc(OCCCC(=O)NC[C@H](NS(=O)(=O)c2ccc(F)cc2)C(=O)O)cc1 [Example 61, (2S)-3-(4-(4-amidinophenoxy)butanoylamino)-2-(4-fluoro)benzenesulfonylaminopropanic Acid] | 25 | 1 | 380 |  | 45 | 32 | 25 | 48 | 0 | 24 | 
N=C(N)c1ccc(OCCCC(=O)NC[C@H](NS(=O)(=O)c2cccc3ccccc23)C(=O)O)cc1 [Example 62, (2S)-3-(4-(4-amidinophenoxy)butanoylamino)-2-(1-naphthalene)sulfonylaminopropanoic Acid] | 4.5 | 1.1 | 240 |  | 63 | 69 | 63 | 56 | 50 | 26 | 
COc1ccc(S(=O)(=O)N[C@@H](CNC(=O)CCCCOc2ccc(C(=N)N)cc2)C(=O)O)cc1 [Example 63, (2S)-3-(5-(4-amidinophenoxy)pentanoylamino)-2-(4-methoxy)benzenesulfonylaminopropanoic Acid] | 41 | 2.2 | 130 |  | 57 | 48 | 26 | 3 | 0 | 15 | 
N=C(N)c1ccc(OCCCCC(=O)NC[C@H](NS(=O)(=O)c2ccccc2)C(=O)O)cc1 [Example 64, (2S)-3-(5-(4-amidinophenoxy)pentanoylamino)-2-benzenesulfonylaminopropanoic Acid] | 280 | 24 | 4800 |  | 50 | 0 | 0 | 0 | 0 | 32 | 
N=C(N)c1ccc(N2CCC(CC(=O)NC[C@H](NS(=O)(=O)c3ccccc3)C(=O)O)CC2)cc1 [Example 69, (2S)-3-(2-(1-(4-amidinophenyl)-4-piperidyl)ethanoylamino)-2-benzenesulfonylaminopropanoic Acid] | 60 | 9.8 | 970 |  | 69 | 39 | 22 | 6 | 3 | 29 | 
Cc1ccccc1S(=O)(=O)N[C@@H](CNC(=O)CCNC(=O)c1ccc(C(=N)N)cc1)C(=O)O [Example 74, (2S)-3-(3-(4-amidinobenzoylamino)propanoylamino)-2-(2-methyl)benzenesulfonylaminopropanoic Acid] | 540 | 22 | 3500 |  | 92 | 100 | 100 | 100 | 100 |  | 14
Cc1cccc(S(=O)(=O)N[C@@H](CNC(=O)CCNC(=O)c2ccc(C(=N)N)cc2)C(=O)O)c1 [Example 75, (2S)-3-(3-(4-amidinobenzoylamino)propanoylamino)-2-(3-methyl)benzenesulfonylaminopropanoic Acid] | 110 | 8.1 | 1600 |  | 74 | 82 | 100 | 90 | 74 |  | 34
